# Earlier results in US20020012634A1, “Antimicrobial dental materials contraining 2,4,4' -trichloro2' -hydroxydiphenyl ether” (priority 1997, published 2002).
# What was measured:
# [1] = tested on: Gram-positive and Gram-negative bacteria as well as fungi, yeasts and viruses
# bacteria = settings: long-term experiments
# plaque bacteria = settings: toothpaste ingredient, dentifrices
compound,measurement,setting,value
"Oc1cc(Cl)ccc1Oc1ccc(Cl)cc1Cl [triclosan, 2,4,4′-trichloro-2′-hydroxydiphenyl ether]","antimicrobial activity, in words",[1],highly effective antimicrobial with a broad spectrum of activity
same,development of bacterial resistance,bacteria,no development of bacterial resistance
same,solubility in organic solvents,,soluble in many organic solvents
same,water solubility,,low
same,effect against plaque bacteria / plaque,plaque bacteria,effective against plaque bacteria
